Drawing on ChEMBL document CHEMBL4715855, “N-phenyl ureidobenzenesulfonates, a novel class of promising human dihydroorotate dehydrogenase inhibitors” (Bioorg Med Chem, 2020), this text covers IC50 for one compound.

Format in all cases: functional, cell-based
Assay [1] deals with HT-29. The assay can be described thus: Antiproliferative activity against human HT-29 cells assessed as cell growth inhibition measured after 48 hrs by SRB assay. As to conditions: HT-29, 48 h, read-out: IC50. (In general: Sulforhodamine B stains cellular protein and so reports cell mass.)
For assay [2], the system named is M21. In words: Antiproliferative activity against human M21 cells assessed as cell growth inhibition measured after 48 hrs by SRB assay. The conditions noted are these: M21, 48 h.
For assay [3], the system named is HT-29. In words: Antiproliferative activity against human HT-29 cells assessed as cell growth inhibition measured after 48 hrs in presence of uridine by SRB assay. As to conditions: HT-29, 48 h.
Assay [4] deals with M21. The assay can be described thus: Antiproliferative activity against human M21 cells assessed as cell growth inhibition measured after 48 hrs in presence of uridine by SRB assay. As to conditions: M21, 48 h.
Assay [5] has as its system HT-1080. In words: Antiproliferative activity against human HT-1080 cells assessed as cell growth inhibition measured after 48 hrs in presence of uridine by SRB assay. The conditions noted are these: HT-1080, 48 h.
Assay [6] relates to MCF7. The assay can be described thus: Antiproliferative activity against human MCF7 cells assessed as cell growth inhibition measured after 48 hrs in presence of uridine by SRB assay. As to conditions: MCF7, 48 h.
In assay [7] the test system is HT-1080. In words: Antiproliferative activity against human HT-1080 cells assessed as cell growth inhibition measured after 48 hrs by SRB assay. The conditions noted are these: HT-1080, 48 h.
The subject of assay [8] is MCF7. In words: Antiproliferative activity against human MCF7 cells assessed as cell growth inhibition measured after 48 hrs by SRB assay. As to conditions: MCF7, 48 h, read-out: IC50.

For orientation: IC50 means the concentration that gives 50% inhibition.

With `Cc1oncc1C(=O)Nc1ccc(C(F)(F)F)cc1` [LEFLUNOMIDE], the IC50 in the assay with HT-29 [1] amounted to 75 µM; with M21 [2], 83 µM; in the assay with HT-29 [3] it was 75 µM; in the assay on M21 [4], 83 µM; in the assay on HT-1080 [5], 38 µM; in the assay with MCF7 [6] it was 57 µM. The results for the IC50 with HT-1080 [7] and with MCF7 [8] were 30 µM and 55 µM, respectively.
